Experimental data reported in patent US20070161704A1, “Pharmaceutical composition useful for treating chronic myeloid leukemia” (COUNCIL OF SCIENTIFIC AND INDUSTRIAL RESEARCH, priority 2002, published 2007).
Entries after “also recorded” stand apart in the source; their conditions may differ.

Columns and labels:
[1] = test system: Bcr-Abl positive CML cell line (K562); test: Cell count assay, viable cells by trypan blue exclusion; assay type: cell-based, human
Method: Cell count assays were performed by plating cells in the presence of regular growth medium with or without indicated amount of extract, FIG. 2(a), fraction, FIG. 2(b), purified compound, FIG. 2(e), and its sodium salt, FIG. 2 (d). Each day, viable cells were counted as assessed by exclusion of try pan blue, FIG. 2(e).

[2] = test system: normal human peripheral blood mononuclear cells (HPBMC); test: Cytokine production by HPBMC (ELISA); assay type: cell-based; settings: for Concentration of Cytokines: IFN-γ / Concentration of Cytokines: IL-2 / Concentration of Cytokines: IL-6: HPBMC, 18 hrs
Source text: Supernatants were collected and quantitated for IL-2, IFN-γ, IL-6 by commercial ELISA.

[3] = test system: Bcr-Abl negative CML patients PBMC; test: Viability of CML patients' PBMC; assay type: cell-based, human; settings: 67.5 nmole/10^5 cells, FIG. 2e; listed as NaChl
Method: (§1) FIG. 2. […] The flow diagram of purification is shown. […] Cell count assays were performed by plating cells in the presence of regular growth medium with or without indicated amount of extract, FIG. 2(a), fraction, FIG. 2(b), purified compound, FIG. […], and its sodium salt, FIG. 2 (d). Each day, viable cells were counted as assessed by exclusion of try pan blue, FIG. […]. Viability of PBMC obtained from three Ph^+ CML patients and one Ph^− CML patient after treatment with Na-Chl (67.5 nmole/10^5 cells), FIG. 2(f), Morphological changes of K562 cells after treatment with NaChl (67.5 nmole/10^5 cells) for 6 h (phase contrast micrographs, ×400).
(§2) Culture of Bcr-Abl positive CML cell line (K562), peripheral blood cells of CML patients, Bcr-Abl-negative ALL cell line (Molt-4) and peripheral blood cells of CML patients. Cell count assays were performed by plating cells in the presence of regular growth medium with or without indicated amount of extract, fraction, purified compound and its sodium salt. Each day, viable cells were counted as assessed by exclusion of trypan blue.

[4] = test system: Philadelphia chromosome (Bcr-Abl) positive CML patients PBMC; test: Viability of CML patients' PBMC; assay type: cell-based, human; settings: 67.5 nmole/10^5 cells, FIG. 2e; listed as NaChl
Method: as §1, §2

K562 cells [5] = test: Morphology analysis by phase contrast microscopy; assay type: cell-based, human; settings: 67.5 nmole/10^5 cells, 6 h, FIG. 2f
Method: as §1
Morphology analysis of Bcr-Abl positive CML cell line K562 by phase contrast microscopy. Cells were left untreated (NT) or treated with NaChl (Nachl; 67.5 nmole/10^5 cells) and viewed under phase contrast microscope (magnification ×400).

Molt-4 cells [6] = test: Apoptosis by flow cytometry (annexin V-FITC/PI); assay type: cell-based; settings: 67.5 nmole/10^5 cells, 6 h, FIG. 3a
Method: (§3) FIG. 3(a). Cells were left untreated (NT) or incubated with NaChl (67.5 nmole/10^5 cells) for 6 h and processed for flow cytometry after staining with annexin V-FITC and PI. Viable cells are in the lower left quadrant. Apoptotic cells stained by annexin V are in the lower right quadrant. Late stage apoptotic cells stained by both annexin V and PI are in the upper right quadrant.
(§4) Measurement of apoptosis by flow cytometry. Cells were left untreated or treated with NaChl (67.5 nmole/10^5 cells) for 6 h. After washing, cells were stained with fluorescein isothyocyanate (FITC) conjugated Annexin V and propidium iodide (PI) and analysed in a flow cytometer (FACS Calibur, Beckton Dickinson, USA).

K562 cells [7] = test: Apoptosis by flow cytometry (annexin V-FITC/PI); assay type: cell-based, human; settings: 67.5 nmole/10^5 cells, 6 h, FIG. 3a
Method: as §3, §4

[8] = test system: PBMC of Bcr-Abl negative CML patients; test: Apoptosis by flow cytometry (annexin V-FITC/PI); assay type: cell-based, human; settings: 67.5 nmole/10^5 cells, 6 h, FIG. 3a
Method: as §3, §4

[9] = test system: PBMC of Bcr-Abl positive CML patients; test: Apoptosis by flow cytometry (annexin V-FITC/PI); assay type: cell-based, human; settings: 67.5 nmole/10^5 cells, 6 h, FIG. 3a
Method: as §3, §4

normal PBMC = test: Apoptosis by flow cytometry (annexin V-FITC/PI); assay type: cell-based, human; settings: 67.5 nmole/10^5 cells, 6 h, FIG. 3a
Method: as §3, §4

K562 cells [10] = test: DNA cell cycle analysis (PI staining); assay type: cell-based, human; settings: 1 or 2 days culture, FIG. 3b
Method: (§5) FIG. 3(b). Treatment with NaChl results in early cell cycle arrest followed by apoptosis in Ph^+ cells. Cells were cultured in the presence or absence of NaChl. After 1 or 2 days in culture, cells were collected, permeabilized, and stained with PI for DNA content analysis. Gates were set to assess the percentages of dead (<2n DNA, M1). G0/G1 (2n DNA, M2), and S+G2+M (>2n DNA, M3) cells.
(§6) DNA cell cycle analysis. Cells were cultured with NaChl as described in example 5. After 1 or 2 days culture, cells were collected, permeabilized and stained with PI for DNA cell cycle analysis.

[11] = test system: PBMC of Bcr-Abl positive CML patients; test: DNA cell cycle analysis (PI staining); assay type: cell-based, human; settings: 1 or 2 days culture, FIG. 3b
Method: as §5, §6

K562 cells [12] = test: Confocal microscopy, Annexin V staining; assay type: cell-based, human; settings: K562, FIG. 3c
Method: (§7) FIG. 3(e). Fluorescence images of K562 and Molt-4 cells after treatment with NaChl followed by staining with annexin V-Allexa™ staining with annex in V are shown in left panels and bright filed phase contrast views are shown in right panels.
(§8) Confocal microscopy. K562 and Molt-4 cells were treated with NaChl followed by staining with Annexin-V -Allexa™ as described in example 5, and allowed to adhere onto poly-L-lysine-coated coverslips for 10 min. Representative fields of cells were analysed with a Leica TCS SP2 confocal laser scanning microscope (Heidelberg, Germany).

Molt-4 cells [13] = test: Confocal microscopy, Annexin V staining; assay type: cell-based; settings: Molt-4, FIG. 3c
Method: as §7, §8

K562 cells [14] = test: Immunoblot detection of caspase 3 activation; assay type: cell-based, human; settings: 24 h, FIG. 3d
Method: (§9) FIG. 3(d). Treatment with NaChl leads to activation of procaspase-3 in Ph+ cells. Cells were left untreated or treated with NaChl (T) for 24 h. Cells were harvested, lysed, equivalent amount of lysates were separated by SDS-PAGE and electrotransferred. The filters were probed with anti-caspase-3 that recognize both procaspase3 (32 Kda, upper band) and caspase-3 cleavage product (17 Kda, lower band).
(§10) Immunoblot assay. Cells were harvested, lysed, equivalent amount of lysates were separated by SDS-PAGE and electro-transferred. The filters were probed with anti-caspase-3 antibody (B.D. Pharmingen), anti-c-Abl antibody or anti-phospho-c-Abl antibody (Cell Signaling Technology).

[15] = test system: PBMC of Bcr-Abl (Ph) positive CML patients; test: Immunoblot detection of caspase 3 activation; assay type: cell-based, human; settings: 24 h, FIG. 3d
Method: as §9, §10

[16] = test system: PBMC of Bcr-Abl negative CML patients; test: Immunoblot detection of caspase 3 activation; assay type: cell-based, human; settings: 24 h, FIG. 3d
Method: as §9, §10

PBMC of normal donors = test: Immunoblot detection of caspase 3 activation; assay type: cell-based, human; settings: 24 h, FIG. 3d
Method: as §9, §10

Molt-4 cells [17] = test: Immunoblot detection of caspase 3 activation; assay type: cell-based; settings: 24 h, FIG. 3d
Method: as §9, §10

[18] = molecular target: T1, Bcr-Abl protein tyrosine kinase (Homo sapiens, UniProt P00519); test: Abl phosphorylation status by flow cytometry and immunoblot; assay type: cell-based; settings: 3 h, anti-phospho-c-Abl (Tyr245), FIG. 4a, 4b
T1 construct: triggering apoptosis of Bcr-Abl expressing CML cell line K562; BCR N-terminal portion (natural fusion partner, P11274); endogenous in cells; host or cells: Ph+ cells: K562 and PBMC of Bcr-Abl positive CML patients; the other entry of the earlier key: BCR (P11274, Breakpoint cluster region protein)
T1 sequence (P00519 28-1130 limits assumed): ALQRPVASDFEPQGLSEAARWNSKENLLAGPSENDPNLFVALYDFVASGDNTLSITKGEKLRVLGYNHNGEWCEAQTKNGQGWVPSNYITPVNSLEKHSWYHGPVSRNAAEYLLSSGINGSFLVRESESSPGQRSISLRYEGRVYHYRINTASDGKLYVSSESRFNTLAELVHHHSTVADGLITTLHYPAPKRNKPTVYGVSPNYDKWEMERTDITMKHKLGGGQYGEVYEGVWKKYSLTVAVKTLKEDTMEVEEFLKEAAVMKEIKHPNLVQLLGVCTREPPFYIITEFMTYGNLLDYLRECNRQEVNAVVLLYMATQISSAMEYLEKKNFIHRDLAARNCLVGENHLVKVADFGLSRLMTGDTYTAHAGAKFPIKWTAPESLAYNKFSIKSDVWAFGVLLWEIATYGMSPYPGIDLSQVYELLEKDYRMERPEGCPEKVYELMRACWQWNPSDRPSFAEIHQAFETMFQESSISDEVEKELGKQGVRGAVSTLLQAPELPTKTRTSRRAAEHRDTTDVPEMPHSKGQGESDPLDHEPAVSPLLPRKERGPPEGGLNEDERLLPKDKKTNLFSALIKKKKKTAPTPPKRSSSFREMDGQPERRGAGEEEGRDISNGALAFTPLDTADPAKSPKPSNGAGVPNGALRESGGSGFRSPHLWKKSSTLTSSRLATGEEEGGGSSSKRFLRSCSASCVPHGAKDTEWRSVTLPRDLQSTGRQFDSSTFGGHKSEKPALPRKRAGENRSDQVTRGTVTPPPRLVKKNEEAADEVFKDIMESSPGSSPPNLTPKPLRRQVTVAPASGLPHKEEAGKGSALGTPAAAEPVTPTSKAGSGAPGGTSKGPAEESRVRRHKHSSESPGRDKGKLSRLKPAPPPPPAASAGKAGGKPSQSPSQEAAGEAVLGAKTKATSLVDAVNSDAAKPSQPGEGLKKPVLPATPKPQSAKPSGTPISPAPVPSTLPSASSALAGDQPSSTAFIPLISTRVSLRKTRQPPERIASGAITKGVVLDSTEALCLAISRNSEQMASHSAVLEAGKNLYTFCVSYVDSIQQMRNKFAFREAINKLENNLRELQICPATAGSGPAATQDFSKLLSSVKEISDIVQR
Method: FIG. 4(a) Flow cytometric determination of Abl phosphorylation status. Cells were left untreated (NT) or incubated with NaChl (T) for 3 h, permeabilized and stained with rabbit anti-phospho-c-Abl (Tyr245) antibody. Dotted line, staining with normal rabbit IgG; solid line, staining with immune IgG.
(§11) FIG. 4(b) Immuno-blot-based determination of Abl phosphorylation status. Cells were harvested, lysed, equivalent amount Iysates were separated by SDS-P AGE and electrotransferred. The filters were probed with anti-phospho-c-Abl (Tyr 245) (upper panels) or anti-c-Abl antibody (middle panels).
as §10
(§12) Flow cytometric determination of Abl phosphorylation or Abl expression status. Cells were permeabelysed, stained with rabbit anti-phospho-c-Abl antibody, anti-c-Abl antibody or control rabbit antibody and analysed in a flow cytometer.

Abl protein = test: Abl expression status by flow cytometry and immunoblot; assay type: cell-based, human; settings: anti-c-Abl antibody, FIG. 4b, 4c
Source text: as §11
FIG. 4(c) Flow cytometric determination of Abl expression status. Cells were permeabilized and stained with rabbit anti-c-Abl antibody. Dotted line, staining with normal rabbit IgG; solid line, staining with immune IgG.
as §10, §12

K562 xenografts = test: In vivo studies on K562 xenografts in nude mice; parameters: species or system mouse; settings: 25-150 mg/kg intraperitoneally once a day for 10 days, FIG. 5
Method: FIG. 5. K562 cells embedded in Matrigel were staged in nude mice until tumors reached 200-300 mm^3. PBS (●), NaChl (25 mg/kg, □; 100 mg/kg, A; 150 mg/kg, ∘) were administered intraperitoneally once a day for ten days.
In vivo studies on K562 xenografts: K562 cells were suspended to 5×10^7 cells/ml in matrigel (BD Biosciences, Mountain View, Calif.; 1 volume of cells with 1 volume of cold Matrigel). Nude female mice 6 to 7 weeks of age were given injections of 0.2 ml of this suspension. Animals were left untreated until K562 xenografts reached 200-300 mm^3. […] Phosphate buffered saline (PBS, 0.2 ml per mouse) was used as a control. Animal studies were conducted under an approved institutional Animal Care and Use Committee protocol.

[19] = test system: STI571-sensitive K562 cells; test: Proliferation by [3H]thymidine uptake; assay type: cell-based, human; settings: 48 h, graded concentrations, FIG. 6
Method: (§13) FIG. 6. […] K562 and K562-R cells were incubated with graded concentrations of ST1571 (A) or NaChl (B) for 48 h, proliferation was then determined by [^3H] thymidine uptake.
(§14) K562 and STI571-resistant K562 cells (K562-R) were incubated with graded concentrations of ST1571 or NaChl for 48 hours, proliferation was then determined by [^3H]thymidine uptake.

[20] = test system: STI571-resistant K562 cells (K562-R); test: Proliferation by [3H]thymidine uptake; assay type: cell-based, human; settings: 48 h, graded concentrations, FIG. 6
Method: as §13
K562 cells were incubated with increasing concentrations of STI571 (received as gift in the form of Gleevec from a CML patient receiving Gleevec therapy), and surviving cells were collected by centrifugation and treated with 2-fold higher concentrations of STI571 (Donato, N. J. et al. Blood, 101:690-698, 2003).
as §14

[21] = PHA 2.5 μg/ml + LPS 1.0 μg/ml + Chl 25 μg/ml

Structure (SMILES): O=C(/C=C/c1ccc(O)c(O)c1)O[C@@H]1C[C@](O)(C(=O)O)C[C@@H](O)[C@H]1O [chlorogenic acid]
- IC50 ([1]; Homo sapiens, in vitro, K562 cells, FIGS. 2C & 2D): 27 µM
- killing of K562 cells ([1]; cell count, FIG. 2a-2c): higher killing activity of K562 cells compare to crude extract or fraction E
- Concentration of Cytokines: IFN-γ ([2]; Chl 25 μg/ml alone): 19.4 pg/mL
- Concentration of Cytokines: IL-2 ([2]; Chl 25 μg/ml alone): 6.8 pg/mL
- Concentration of Cytokines: IL-6 ([2]; Chl 25 μg/ml alone): 781.9 pg/mL
- Concentration of Cytokines: IFN-γ [2, 21]: 13.8 pg/mL
- Concentration of Cytokines: IL-2 [2, 21]: 2.5 pg/mL
- Concentration of Cytokines: IL-6 [2, 21]: 1899.0 pg/mL
- production of IL-2, IFN-γ, and IL-6 by HPBMC after stimulation with PHA and LPS ([2]; PHA and LPS stimulation): significantly inhibited
- spontaneous production of IL-2, IFN-γ, and IL-6 by HPBMC ([2]; no stimulation): inhibits

Structure (SMILES): O=C(/C=C/c1ccc(O)c(O)c1)O[C@@H]1C[C@](O)(C(=O)[O-])C[C@@H](O)[C@H]1O.[Na+] [sodium chlorogenate]
- effect on Bcr-Abl negative CML patients PBMC [3]: no effect; also recorded: without any effects
- killing of Bcr-Abl positive CML patients PBMC [4]: active in killing; also recorded: destroys
- morphological changes in K562 cells (K562 cells [5]): induces morphological changes (nuclear condensation)
- apoptosis (Molt-4 cells [6]): did not induce apoptosis
- apoptosis (K562 cells [7]): increase in apoptosis
- apoptosis [8]: did not induce apoptosis
- apoptosis [9]: increase in apoptosis
- apoptosis (normal PBMC): remain virtually unaffected
- apoptosis (normal PBMC; listed as NaChl): did not induce apoptosis
- DNA cell cycle (K562 cells [10]): induces cell cycle arrest followed by breakdown of DNA
- DNA cell cycle [11]: induces cell cycle arrest followed by breakdown of DNA
- Annexin V staining (confocal) (K562 cells [12]): positive Annexin V staining
- Annexin V staining (confocal) (Molt-4 cells [13]): not in Molt-4 cells
- apoptosis by caspase 3 activation (K562 cells [14]): Apoptosis in K562 cells
- apoptosis by caspase 3 activation [15]: Apoptosis
- apoptosis by caspase 3 activation [16]: not
- apoptosis by caspase 3 activation (PBMC of normal donors): not
- apoptosis by caspase 3 activation (Molt-4 cells [17]): not in Molt-4 cells
- phosphorylation of Bcr-Abl protein tyrosine kinase [18]: inhibits phosphorilation
- expression of Abl protein level (Abl protein): without affecting the expression
- tumor growth of K562 xenografts (K562 xenografts): reduced the tumor growth in a dose dependent manner
- apoptosis/proliferation of STI571-sensitive K562 cells [19]: induces apoptosis
- apoptosis/proliferation of STI571-resistant K562 cells [20]: induces apoptosis
- production of interferon gamma ([2]; statement referring to Table II): significantly inhibits
